Results taken from paper doi:10.1101/2021.01.21.427566v1, “Gradual opening of Smc arms in prokaryotic condensin” (biorxiv, 2021).

Columns and labels:
Smc-ScpAB holo-complex = target: T1, Smc-ScpAB holo-complex (Bacillus subtilis, UniProt P51834); experiment: coupled ATPase assay, ATP titration; assay type: biochemical; details: wild-type Smc with ScpAB, pH 7.5, 2 mM MgCl2, 25 °C
T1 construct: full-length native (untagged) Smc, ScpA and ScpB purified separately from E. coli and mixed stoichiometrically; with Segregation and condensation protein A; Segregation and condensation protein B
T1 sequence (P51834 1-1186): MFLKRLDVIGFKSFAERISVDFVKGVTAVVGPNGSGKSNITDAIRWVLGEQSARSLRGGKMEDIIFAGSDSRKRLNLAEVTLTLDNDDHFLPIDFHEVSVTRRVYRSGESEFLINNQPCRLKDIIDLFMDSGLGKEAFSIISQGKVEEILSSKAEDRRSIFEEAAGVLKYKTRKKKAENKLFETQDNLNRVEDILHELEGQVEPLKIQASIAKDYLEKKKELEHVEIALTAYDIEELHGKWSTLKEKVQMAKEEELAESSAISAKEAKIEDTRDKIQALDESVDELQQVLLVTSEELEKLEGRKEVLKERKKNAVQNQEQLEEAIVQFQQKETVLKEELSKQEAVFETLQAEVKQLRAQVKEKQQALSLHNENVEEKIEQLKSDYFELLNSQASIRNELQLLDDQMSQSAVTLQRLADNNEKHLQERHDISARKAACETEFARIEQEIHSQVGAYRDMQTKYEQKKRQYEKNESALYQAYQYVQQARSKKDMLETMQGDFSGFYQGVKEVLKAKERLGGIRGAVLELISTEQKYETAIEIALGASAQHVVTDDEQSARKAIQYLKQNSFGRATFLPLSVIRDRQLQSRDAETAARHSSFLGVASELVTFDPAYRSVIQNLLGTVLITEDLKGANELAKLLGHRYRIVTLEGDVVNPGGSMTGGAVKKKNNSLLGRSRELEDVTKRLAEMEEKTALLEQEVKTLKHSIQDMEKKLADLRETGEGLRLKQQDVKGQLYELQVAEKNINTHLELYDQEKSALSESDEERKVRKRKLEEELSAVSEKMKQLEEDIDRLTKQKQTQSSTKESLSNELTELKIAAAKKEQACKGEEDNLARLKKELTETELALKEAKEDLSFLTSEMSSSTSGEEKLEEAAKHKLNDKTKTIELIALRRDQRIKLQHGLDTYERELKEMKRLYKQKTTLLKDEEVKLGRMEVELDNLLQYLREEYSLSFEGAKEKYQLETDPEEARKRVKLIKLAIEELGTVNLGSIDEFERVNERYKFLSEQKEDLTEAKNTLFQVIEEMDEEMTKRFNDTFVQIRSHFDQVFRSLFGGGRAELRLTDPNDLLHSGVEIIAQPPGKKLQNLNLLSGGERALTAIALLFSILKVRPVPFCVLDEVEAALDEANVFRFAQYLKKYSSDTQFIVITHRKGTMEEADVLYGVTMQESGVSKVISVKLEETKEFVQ
T1 sequence (P35154 1-251 partner): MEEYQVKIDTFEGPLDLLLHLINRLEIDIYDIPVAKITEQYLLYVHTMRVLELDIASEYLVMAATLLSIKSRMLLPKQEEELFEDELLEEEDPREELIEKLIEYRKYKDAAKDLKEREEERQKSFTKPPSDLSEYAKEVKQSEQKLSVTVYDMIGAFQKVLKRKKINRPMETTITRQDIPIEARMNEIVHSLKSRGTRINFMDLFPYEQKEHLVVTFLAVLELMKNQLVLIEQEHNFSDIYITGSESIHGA
T1 sequence (P35155 1-197 partner): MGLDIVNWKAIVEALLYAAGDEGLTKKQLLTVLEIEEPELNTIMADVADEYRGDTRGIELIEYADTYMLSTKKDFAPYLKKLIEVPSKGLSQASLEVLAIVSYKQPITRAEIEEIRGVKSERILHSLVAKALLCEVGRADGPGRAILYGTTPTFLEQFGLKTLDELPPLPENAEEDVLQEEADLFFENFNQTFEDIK

[1] = target: T2, Bsu Smc (Smc dimer without ScpAB) (Bacillus subtilis, UniProt P51834); experiment: coupled ATPase assay, ATP titration; assay type: biochemical; details: wild-type Smc, no DNA, pH 7.5, 2 mM MgCl2, 25 °C
T2 construct: full-length native (untagged) Smc, expressed in E. coli BL21-Gold (DE3) from pET-22/pET-28; homodimer
T2 sequence (P51834 1-1186): T1 sequence (P51834 1-1186)

Nc1ncnc2c1ncn2[C@@H]1O[C@H](COP(=O)(O)OP(=O)(O)OP(=O)(O)O)[C@@H](O)[C@H]1O [ATP]
coupled ATPase assay, ATP titration (Smc-ScpAB holo-complex): increasing concentrations of ATP and in the absence or presence of dsDNA40 and ScpAB | coupled ATPase assay, ATP titration [1]: Measurement of ATP hydrolysis rates for Smc protein (wt), Smc(G302W) and Smc(G302E)
